Tested on: HBV
Assay: HBV-DNA Antiviral Assay Using HepG2.117 Cells (intracellular HBV DNA by qPCR)
Type: cell-based, hepatitis B virus (genotype D)
Conditions: Hepatitis B virus, HepG2.117
In short: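 HepG2.117 cells (genotype D HBV, Tet-off) were induced by doxycycline withdrawal and treated for 3 days with 9 concentrations in 4-fold dilution, 2% DMSO final. Intracellular HBV DNA was measured by qPCR against a standard curve, with ATPlite viability read in parallel. EC50, EC90 and CC50 came from fits against the DMSO control.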

| SMILES | EC50 [nM] |
| --- | --- |
| O=C(NCc1c(F)cccc1Cl)c1c2n(c(=O)n1-c1ccc(OC3CC3)cc1)CCN(C(=O)c1ccc(Br)c(Cl)c1)C2 [Example 305, 7-(4-bromo-3-chloro-benzoyl)-N-[(2-chloro-6-fluoro-phenyl)methyl]-2-[4-(cyclopropoxy)phenyl]-3-oxo-6,8-dihydro-5H-imidazo[1,5-a]pyrazine-1-carboxamide] | 100 to 500 |
| O=C(NCc1cccc2cccnc12)c1c2n(c(=O)n1-c1ccc(OCC(F)(F)F)cc1)CCN(C(=O)c1ccc(Br)c(Cl)c1)C2 [Example 230, 7-(4-bromo-3-chloro-benzoyl)-3-oxo-N-(8-quinolylmethyl)-2-[4-(2,2,2-triflurooethoxy)phenyl]-6,8-dihydro-5H-imidazo[1,5-a]pyrazine-1-carboxamide] | 100 to 500 |
| COc1cc(C#N)ccc1CNC(=O)c1c2n(c(=O)n1-c1ccc(OC(C)C)cc1)CCN(C(=O)c1ccc(Br)c(Cl)c1)C2 [Example 236, 7-(4-bromo-3-chloro-benzoyl)-N-[(4-cyano-2-methoxy-phenyl)methyl]-2-(4-isopropoxyphenyl)-3-oxo-6,8-dihydro-5H-imidazo[1,5-a]pyrazine-1-carboxamide] | 100 to 500 |
| COc1ccc(CNC(=O)c2c3n(c(=O)n2-c2cccc(OC)c2)CCN(C(=O)c2ccc(Br)c(Cl)c2)C3)cc1 [Example 21, 7-(4-bromo-3-chloro-benzoyl)-2-(3-methoxyphenyl)-N-[(4-methoxyphenyl)methyl]-3-oxo-6,8-dihydro-5H-imidazo[1,5-a]pyrazine-1-carboxamide] | 500 to 5000 |
| COc1ccc(CNC(=O)c2c3n(c(=O)n2-c2ccccc2)CCN(C(=O)c2ccc(Br)c(Cl)c2)C3)c(C)c1 [Example 39, 7-(4-bromo-3-chloro-benzoyl)-N-[(4-methoxy-2-methyl-phenyl)methyl]-3-oxo-2-phenyl-6,8-dihydro-5H-imidazo[1,5-a]pyrazine-1-carboxamide] | 100 to 500 |
| O=C(NCc1ccccc1-c1cocn1)c1c2n(c(=O)n1-c1ccc(OCC(F)(F)F)cc1)CCN(C(=O)c1ccc(Br)c(Cl)c1)C2 [Example 386, 7-(4-bromo-3-chloro-benzoyl)-N-[(2-oxazol-4-ylphenyl)methyl]-3-oxo-2-[4-(2,2,2-trifluoroethoxy)phenyl]-6,8-dihydro-5H-imidazo[1,5-a]pyrazine-1-carboxamide] | 100 to 500 |
| Cc1nc2c(CNC(=O)c3c4n(c(=O)n3-c3ccc(OCC(F)(F)F)cc3)CCN(C(=O)c3ccc(Br)c(Cl)c3)C4)cccc2o1 [Example 411, 7-(4-bromo-3-chloro-benzoyl)-N-[(2-methyl-1,3-benzoxazol-4-yl)methyl]-3-oxo-2-[4-(2,2,2-trifluoroethoxy)phenyl]-6,8-dihydro-5H-imidazo[1,5-a]pyrazine-1-carboxamide] | 100 to 500 |
| COc1ccc(-n2c(C(=O)NCc3cccc(C(N)=O)c3)c3n(c2=O)CCN(C(=O)c2ccc(Cl)c(Cl)c2)C3)cc1 [Example 126, N-[(3-carbamoylphenyl)methyl]-7-(3,4-dichlorobenzoyl)-2-(4-methoxyphenyl)-3-oxo-6,8-dihydro-5H-imidazo[1,5-a]pyrazine-1-carboxamide] | > 5000 |
| O=C(NCc1ccccc1)c1c2n(c(=O)n1-c1cccc(Cl)c1)CCN(C(=O)c1ccc(Br)c(Cl)c1)C2 [Example 29, N-benzyl-7-(4-bromo-3-chloro-benzoyl)-2-(3-chlorophenyl)-3-oxo-6,8-dihydro-5H-imidazo[1,5-a]pyrazine-1-carboxamide] | 500 to 5000 |
| O=C(NCc1ccc(OC(F)F)cc1F)c1c2n(c(=O)n1-c1ccc(OC3CC3)cc1)CCN(C(=O)c1ccc(Br)c(Cl)c1)C2 [Example 297, 7-(4-bromo-3-chloro-benzoyl)-2-[4-(cyclopropoxy)phenyl]-N-[[4-(difluoromethoxy)-2-fluoro-phenyl]methyl]-3-oxo-6,8-dihydro-5H-imidazo[1,5-a]pyrazine-1-carboxamide] | 100 to 500 |
| COc1ccc(-n2c(C(=O)NCc3ccc(F)c(OC)c3)c3n(c2=O)CCN(C(=O)c2ccc(Cl)c(Cl)c2)C3)cc1 [Example 103, 7-(3,4-dichlorobenzoyl)-N-[(4-fluoro-3-methoxy-phenyl)methyl]-2-(4-methoxyphenyl)-3-oxo-6,8-dihydro-5H-imidazo[1,5-a]pyrazine-1-carboxamide] | 500 to 5000 |
| N#Cc1cc(C(=O)N2CCn3c(c(C(=O)NCc4ccccc4-c4ncco4)n(-c4ccc(OC5CC5)cc4)c3=O)C2)ccc1Br [Example 433, 7-(4-bromo-3-cyano-benzoyl)-2-[4-(cyclopropxy)phenyl]-N-[(2-oxazol-2-ylphenyl)methyl]-3-oxo-6,8-dihydro-5H-imidazo[1,5-a]pyrazine-1-carboxamide] | 100 to 500 |
| C[C@H]1CN(Cc2ccccc2)C(=O)c2c3n(c(=O)n2C1)CCN(C(=O)c1ccc(Br)c(Cl)c1)C3 (stereo in doubt) [Example 98, rac-((1S)-13-benzyl-4-(4-bromo-3-chloro-benzoyl)-11-methyl-4,7,9,13-tetrazatricyclo[7.5.0.0^2,7]tetradec-1-ene-8.14-dione] | 500 to 5000 |
| CC(C)Oc1ccc(-n2c(C(=O)NC(C)c3ccccc3)c3n(c2=O)CCN(C(=O)c2ccc(Br)c(Cl)c2)C3)cc1 (racemic) [Example 118, 7-(4-bromo-3-chloro-benzoyl)-2-(4-isopropoxyphenyl)-3-oxo-N-[rac-(1R)-1-phenylethyl]-6,8-dihydro-5H-imidazo[1,5-a]pyrazine-1-carboxamide] | 100 to 500 |
| O=C(NCc1ccccc1-c1cnccn1)c1c2n(c(=O)n1-c1ccc(OCC(F)(F)F)cc1)CCN(C(=O)c1ccc(Br)c(Cl)c1)C2 [Example 402, 7-(4-bromo-3-chloro-benzoyl)-3-oxo-N-[(2-pyrazin-2-ylphenyl)methyl]-2-[4-(2,2,2-trifluoroethoxy)phenyl]-6,8-dihydro-5H-imidazo[1,5-a]pyrazine-1-carboxamide] | < 100 |
| CC1Cn2c(c(C(=O)N[C@H](C)c3ccccc3F)n(-c3ccc(OC4CC4)cc3)c2=O)CN1C(=O)c1ccc(Br)c(Cl)c1 (mixture of isomers) [Example 321, (6RS)-7-(4-bromo-3-chloro-benzoyl)-2-[4-(cyclopropoxy)phenyl]-N-[(1R)-1-(2-fluorophenyl)ethyl]-6-methyl-3-oxo-6,8-dihydro-5H-imidazo[1,5-a]pyrazine-1-carboxamide] | 500 to 5000 |
| C[C@@H](NC(=O)c1c2n(c(=O)n1-c1ccc(OC3CC3)cc1)C[C@H](C)N(C(=O)c1ccc(Br)c(Cl)c1)C2)c1ccccc1 (mixture of isomers) [Example 332, (6SR)-7-(4-bromo-3-chloro-benzoyl)-2-[4-(cyclopropoxy)phenyl]-6-methyl-3-oxo-N-[(1R)-1-phenylethyl]-6,8-dihydro-5H-imidazo[1,5-a]pyrazine-1-carboxamide] | 100 to 500 |
| O=C(c1ccc(Br)c(Cl)c1)N1CCn2c(c3n(c2=O)C[C@H](O)CN(Cc2ccccc2)C3=O)C1 (stereo in doubt) [Example 174, rac-(11R)-13-benzyl-4-(4-bromo-3-chloro-benzoyl)-11-hydroxy-4,7,9,13-tetrazatricyclo[7.5.0.0^2,7]tetradec-1-ene-8.14-dione] | 500 to 5000 |
| COc1ccc(-n2c(C(=O)NCc3ccc(OC)c(C)c3)c3n(c2=O)CCN(C(=O)c2ccc(Cl)c(Cl)c2)C3)cc1 [Example 89, 7-(3,4-dichlorobenzoyl)-N-[(4-methoxy-3-methyl-phenyl)methyl]-2-(4-methoxyphenyl)-3-oxo-6,8-dihydro-5H-imidazo[1,5-a]pyrazine-1-carboxamide] | 500 to 5000 |

Source: patent US11591341B2 (ALIGOS THERAPEUTICS, INC., priority 2019, dated 2023)
